Test results: ChEMBL document CHEMBL4350985, “1,3-Dioxane as a scaffold for potent and selective 5-HT1AR agonist with in-vivo anxiolytic, anti-depressant and anti-nociceptive activity” (Eur J Med Chem, 2019)
Calls of active or inactive are those of the source. The rule behind the calls is not given here.

Columns and labels:
[1] = molecular target: T1, Alpha-1A adrenergic receptor (Rattus norvegicus) (UniProt P43140); assay: Antagonist activity at alpha-1a adrenergic receptor in Wistar rat prostatic vas deferens assessed as inhibition of (-)-noradrenaline-induced contraction
T1 sequence (whole entry): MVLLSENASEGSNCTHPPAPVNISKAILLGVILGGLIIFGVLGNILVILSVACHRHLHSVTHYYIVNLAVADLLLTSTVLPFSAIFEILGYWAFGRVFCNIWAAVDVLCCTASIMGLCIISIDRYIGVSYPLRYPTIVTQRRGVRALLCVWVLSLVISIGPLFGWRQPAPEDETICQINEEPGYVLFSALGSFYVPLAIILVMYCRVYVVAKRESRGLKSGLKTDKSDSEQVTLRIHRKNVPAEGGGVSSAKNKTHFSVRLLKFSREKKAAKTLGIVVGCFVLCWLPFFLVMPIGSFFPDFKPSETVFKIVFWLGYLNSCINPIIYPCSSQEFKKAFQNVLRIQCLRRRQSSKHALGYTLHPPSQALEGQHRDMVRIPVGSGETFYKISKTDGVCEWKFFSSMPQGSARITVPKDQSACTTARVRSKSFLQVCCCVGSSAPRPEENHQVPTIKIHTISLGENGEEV

[2] = molecular target: T2, Alpha-1B adrenergic receptor (Rattus norvegicus) (UniProt P15823); assay: Antagonist activity at alpha-1b adrenergic receptor in Wistar rat spleen assessed as inhibition of (-)-phenylephrine-induced contraction; format: tissue-based
T2 sequence (whole entry): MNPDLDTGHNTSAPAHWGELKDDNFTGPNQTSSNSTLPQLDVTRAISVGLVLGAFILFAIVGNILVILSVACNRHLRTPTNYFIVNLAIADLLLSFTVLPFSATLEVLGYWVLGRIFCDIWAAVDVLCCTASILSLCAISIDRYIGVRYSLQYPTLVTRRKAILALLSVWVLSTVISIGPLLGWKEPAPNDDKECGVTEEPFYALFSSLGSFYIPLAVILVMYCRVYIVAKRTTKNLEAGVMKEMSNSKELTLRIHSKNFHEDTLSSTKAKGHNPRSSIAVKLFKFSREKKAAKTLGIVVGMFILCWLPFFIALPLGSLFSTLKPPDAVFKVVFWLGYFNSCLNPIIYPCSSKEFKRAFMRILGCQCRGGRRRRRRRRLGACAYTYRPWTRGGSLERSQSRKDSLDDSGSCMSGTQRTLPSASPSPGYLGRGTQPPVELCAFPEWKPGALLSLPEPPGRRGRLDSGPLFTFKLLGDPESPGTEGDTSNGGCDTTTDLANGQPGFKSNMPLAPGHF

[3] = molecular target: T3, Alpha-1A adrenergic receptor (Homo sapiens, UniProt P35348); assay: biochemical
T3 sequence (P35348 whole entry): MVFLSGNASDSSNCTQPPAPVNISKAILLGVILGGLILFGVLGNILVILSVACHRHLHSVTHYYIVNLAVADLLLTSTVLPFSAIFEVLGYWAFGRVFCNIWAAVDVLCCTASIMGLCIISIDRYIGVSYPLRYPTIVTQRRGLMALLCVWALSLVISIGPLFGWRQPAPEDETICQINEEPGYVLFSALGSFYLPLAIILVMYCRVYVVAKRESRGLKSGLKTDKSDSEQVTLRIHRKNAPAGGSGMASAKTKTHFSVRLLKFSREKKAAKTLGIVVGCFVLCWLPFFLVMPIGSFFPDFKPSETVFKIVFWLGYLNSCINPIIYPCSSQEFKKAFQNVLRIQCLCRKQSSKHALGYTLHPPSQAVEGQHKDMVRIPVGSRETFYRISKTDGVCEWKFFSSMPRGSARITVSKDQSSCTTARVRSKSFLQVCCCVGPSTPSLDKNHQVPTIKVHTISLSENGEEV
Description: Displacement of [3H] prazosin from human cloned adrenoceptor alpha 1A expressed in CHO cell membrane incubated for 30 mins by liquid scintillation counting

[4] = molecular target: T4, Alpha-1B adrenergic receptor (Homo sapiens, UniProt P35368); assay: Displacement of [3H] prazosin from human cloned adrenoceptor alpha 1B expressed in CHO cell membrane incubated for 30 mins by liquid scintillation counter
T4 sequence (P35368 whole entry): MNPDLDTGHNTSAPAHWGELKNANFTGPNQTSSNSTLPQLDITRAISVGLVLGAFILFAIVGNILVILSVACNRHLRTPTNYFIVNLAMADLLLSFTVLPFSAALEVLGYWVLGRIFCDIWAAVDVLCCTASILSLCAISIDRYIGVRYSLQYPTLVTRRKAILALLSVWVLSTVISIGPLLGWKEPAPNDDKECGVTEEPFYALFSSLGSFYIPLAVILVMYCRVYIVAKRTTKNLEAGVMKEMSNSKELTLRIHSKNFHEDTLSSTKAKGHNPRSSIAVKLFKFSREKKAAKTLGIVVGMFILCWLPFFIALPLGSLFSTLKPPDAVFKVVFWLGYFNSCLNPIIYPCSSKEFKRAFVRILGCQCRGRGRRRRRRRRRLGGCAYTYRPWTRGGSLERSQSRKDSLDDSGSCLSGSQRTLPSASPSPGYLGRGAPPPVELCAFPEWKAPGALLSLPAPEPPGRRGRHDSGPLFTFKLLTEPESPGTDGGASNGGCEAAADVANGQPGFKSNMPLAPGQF

[5] = molecular target: T5, Alpha-1D adrenergic receptor (Homo sapiens, UniProt P25100); assay: biochemical
T5 sequence (P25100 whole entry): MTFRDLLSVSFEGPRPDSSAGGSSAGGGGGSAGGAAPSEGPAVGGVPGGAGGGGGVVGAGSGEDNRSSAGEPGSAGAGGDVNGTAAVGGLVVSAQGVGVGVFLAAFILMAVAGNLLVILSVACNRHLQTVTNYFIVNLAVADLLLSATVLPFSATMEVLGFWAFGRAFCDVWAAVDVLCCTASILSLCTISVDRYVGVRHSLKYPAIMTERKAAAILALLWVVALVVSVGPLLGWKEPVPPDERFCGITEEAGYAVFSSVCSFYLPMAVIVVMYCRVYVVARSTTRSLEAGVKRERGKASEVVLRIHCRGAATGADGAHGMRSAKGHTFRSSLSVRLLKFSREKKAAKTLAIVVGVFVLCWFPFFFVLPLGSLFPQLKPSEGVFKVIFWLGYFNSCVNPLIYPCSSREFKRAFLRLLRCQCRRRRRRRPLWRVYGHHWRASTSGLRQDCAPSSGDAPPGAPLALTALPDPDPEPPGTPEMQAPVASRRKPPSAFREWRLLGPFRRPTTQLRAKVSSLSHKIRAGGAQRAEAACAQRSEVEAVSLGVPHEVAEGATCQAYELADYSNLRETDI
Description: Displacement of [3H] prazosin from human cloned adrenoceptor alpha 1D expressed in CHO cell membrane incubated for 30 mins by liquid scintillation counter

[6] = molecular target: T6, 5-hydroxytryptamine receptor 1A (Homo sapiens, UniProt P08908); assay: Displacement of [3H]8-OH-DPAT from human cloned 5HT-1AR transfected in HeLa cells incubated for 30 mins by liquid scintillation counter; format: cell-based
T6 sequence (P08908 whole entry): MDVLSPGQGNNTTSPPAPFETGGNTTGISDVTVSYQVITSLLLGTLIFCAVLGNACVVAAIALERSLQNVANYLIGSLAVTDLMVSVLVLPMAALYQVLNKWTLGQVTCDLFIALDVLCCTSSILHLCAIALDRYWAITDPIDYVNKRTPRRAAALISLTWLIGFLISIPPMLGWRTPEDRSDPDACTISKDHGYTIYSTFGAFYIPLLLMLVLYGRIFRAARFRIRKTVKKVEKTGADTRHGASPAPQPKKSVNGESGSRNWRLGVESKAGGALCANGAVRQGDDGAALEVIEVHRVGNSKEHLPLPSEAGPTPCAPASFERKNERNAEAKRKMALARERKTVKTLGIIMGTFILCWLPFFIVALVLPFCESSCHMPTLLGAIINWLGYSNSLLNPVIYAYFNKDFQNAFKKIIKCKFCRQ

[7] = molecular target: T7, Alpha-1D adrenergic receptor (Rattus norvegicus) (UniProt P23944); assay: Antagonist activity at alpha-1d adrenergic receptor in Wistar rat thoracic aorta assessed as inhibition of (-)-noradrenaline-induced contractions
T7 sequence (whole entry): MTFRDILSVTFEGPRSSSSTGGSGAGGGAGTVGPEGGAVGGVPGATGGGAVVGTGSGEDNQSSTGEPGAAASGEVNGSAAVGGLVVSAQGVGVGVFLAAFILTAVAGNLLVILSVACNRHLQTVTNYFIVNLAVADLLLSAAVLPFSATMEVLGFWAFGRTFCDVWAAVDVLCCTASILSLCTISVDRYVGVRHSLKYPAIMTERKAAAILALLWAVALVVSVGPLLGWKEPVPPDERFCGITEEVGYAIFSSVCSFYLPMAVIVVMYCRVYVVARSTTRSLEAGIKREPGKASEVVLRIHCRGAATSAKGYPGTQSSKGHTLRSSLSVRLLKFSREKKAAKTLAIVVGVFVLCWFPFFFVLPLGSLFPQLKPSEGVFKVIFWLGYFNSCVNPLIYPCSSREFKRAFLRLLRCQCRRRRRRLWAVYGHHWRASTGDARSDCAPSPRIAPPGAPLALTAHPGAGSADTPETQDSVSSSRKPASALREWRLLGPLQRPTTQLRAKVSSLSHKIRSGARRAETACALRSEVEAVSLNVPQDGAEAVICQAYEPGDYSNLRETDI

[8] = molecular target: T8, 5-hydroxytryptamine receptor 1A (Homo sapiens) (UniProt P08908); details: HeLa
T8 sequence (whole entry): T6 sequence (P08908 whole entry)
Description: Agonist activity at human recombinant 5HT1A receptor expressed in human HeLa cells assessed as increase in [35S]GTPgammaS binding incubated for 20 mins by liquid scintillation counter

Rattus norvegicus [9] = species: Rattus norvegicus; assay: Selectivity for antagonist activity at Wistar rat thoracic aorta alpha 1D adrenoceptor over antagonist activity at Wistar rat prostate vas deferens alpha 1A adrenoceptor
Rattus norvegicus [10] = species: Rattus norvegicus; assay: Selectivity for antagonist activity at Wistar rat thoracic aorta alpha 1D adrenoceptor over antagonist activity at Wistar rat spleen alpha 1B adrenoceptor
Rattus norvegicus [11] = assay: Effect on locomotory activity in Sprague-Dawley rat assessed as distance travelled at 0.5 mg/kg, ip by open field test; format: functional, organism-based
Rattus norvegicus [12] = assay: Antidepressant activity in Sprague-Dawley rat assessed as increase in time spent in swimming at 0.5 mg/kg, ip by forced swim test; format: functional, organism-based
[13] = Half life in Sprague-Dawley rat plasma at 10 mg/kg, po measured upto 480 mins by LC/MS-MS analysis; format: ADME, organism-based
Rattus norvegicus [14] = assay: Anxiolytic activity at Sprague-Dawley rat assessed as increase in time spent in open arm at 0.5 mg/kg, ip by EPM test relative to control; format: functional
Rattus norvegicus [15] = assay: Antidepressant activity in Sprague-Dawley rat assessed as decrease in time of immobilization at 0.5 mg/kg, ip by forced swim test; format: functional, organism-based
Rattus norvegicus [16] = assay: Antidepressant activity in Sprague-Dawley rat assessed as time spent on climbing at 0.5 mg/kg, ip by forced swim test; format: functional, organism-based
Rattus norvegicus [17] = assay: Anxiolytic activity at Sprague-Dawley rat assessed as number of open arm entries at 0.5 mg/kg, ip by EPM test; format: functional, organism-based

Row | Structure (SMILES) | pKb [1] | pKb [2] | Ki [3] [nM] | Ki [4] [nM] | Ki [5] [nM] | Ki [6] [nM] | pKb [7] | pD2 [8] | Ratio pKb (Rattus norvegicus [9]) | Ratio pKb (Rattus norvegicus [10]) | Activity (Rattus norvegicus [11]) | Activity (Rattus norvegicus [12]) | half-life [13] [min] | Activity (Rattus norvegicus [14]) [%] | inhibition (Rattus norvegicus [15]) | Activity (Rattus norvegicus [16]) | Activity (Rattus norvegicus [17])
1 | COc1ccccc1OCCNC[C@H]1CO[C@H](C(c2ccccc2)c2ccccc2)O1 (relative stereo) | 6.78 | 6.82 | 30.9 | 27.5 | 7.08 | 2 | 7.64 |  |  |  |  |  |  |  |  |  | 
2 | c1ccc(OCCNCC[C@@H]2CO[C@H](C(c3ccccc3)c3ccccc3)O2)cc1 (relative stereo) | 6.14 | 6.43 | 170 | 107 | 75.9 | 60.3 | 7.15 |  |  |  |  |  |  |  |  |  | 
3 | c1ccc(OCCNC[C@@H]2CO[C@H](C(c3ccccc3)c3ccccc3)O2)cc1 (relative stereo) | 6.22 | 6.83 | 427 | 102 | 29.5 | 11.5 | 6.72 |  |  |  |  |  |  |  |  |  | 
4 | c1ccc(OCCNCC2COC(c3ccccc3)(c3ccccc3)O2)cc1 (stereo unspecified) | 6.16 | 5.86 |  |  |  |  | 8.37 | 8.8 | > 100 | > 100 |  |  |  |  |  |  | 
5 | c1ccc(OCCNCC[C@H]2CO[C@H](C(c3ccccc3)c3ccccc3)O2)cc1 (relative stereo) | 5.71 | 6.66 | 89.1 | 166 | 95.5 | 57.5 | 7.22 |  |  |  |  |  |  |  |  |  | 
6 | COc1ccccc1OCCNC[C@@H]1CO[C@H](C(c2ccccc2)c2ccccc2)O1 (relative stereo) | 6.16 | 6.75 | 977 | 37.2 | 4.37 | 3.16 | 7.52 |  |  |  |  |  |  |  |  |  | 
7 | c1ccc(OCCNC[C@H]2CO[C@H](C(c3ccccc3)c3ccccc3)O2)cc1 (relative stereo) | 6.29 | 6.26 | 120 | 102 | 87.1 | 5.25 | 6.7 |  |  |  |  |  |  |  |  |  | 
8 | c1ccc(OCCNCCC2COC(c3ccccc3)(c3ccccc3)O2)cc1 (stereo unspecified) | 6.34 | 6.49 | 58.9 | 95.5 | 30.2 | 724 | 7.04 |  |  |  |  |  |  |  |  |  | 
9 | COc1ccccc1OCCNCC1COC(c2ccccc2)(c2ccccc2)O1 (stereo unspecified) | 7.53 | 7.36 |  |  |  |  | 8.65 | 7.36 |  |  |  |  |  |  |  |  | 
10 | Br.CCCN(CCC)C1CCc2cccc(O)c2C1 (stereo unspecified) |  |  |  |  |  |  |  |  |  |  | inactive | Active | 27 | 19 | Active | inactive | inactive
